# Measured values taken from patent US8975232B2, “Macrocyclic kinase inhibitors and uses thereof” (President and Fellows of Harvard College, priority 2010, dated 2015).
# Where two headings read alike, the source gives them in different places.
# Assays:
# [1] = target: T1, Src kinase domain (Gallus gallus, UniProt P00523); experiment: Fluorescence anisotropy binding assay; design: species or system chicken; details: fluorescein-labeled macrocycle, read-out: dissociation constant (KD)
# T1 construct: chicken c-Src (residues 251-533 and residues 83-533); made in house
# Procedure: The change in fluorescence anisotropy of fluorescein-labeled MC1, MC4 and MC9 at 518 nm upon excitation at 492 nm was monitored with a HORIBA Jobin Yvon FluoroMax-4 (Edison, N.J.) spectrofluorimeter. Kinase was titrated to 0.5 μM of the fluorescently labeled macrocycle in 100 mM Tris pH 8.0, 10 mM MgCl2 at 25° C. After equilibration, the increase in the fluorescence anisotropy of the fluorescently labeled ligand was recorded and fitted against a quadratic binding equation in Kaleidagraph (Synergy Software, Reading Pa.) to yield the dissociation constant KD.
# To clarify the inhibitory mechanism of the compounds further, the binding affinity of fluorescently labeled MC1, MC4, and MC9 to Src kinase domain was determined in a fluorescence anisotropy assay (FIG. 21).
# [2] = target: T2, Src kinase domain (chicken c-Src residues 251-533) (Gallus gallus, UniProt P00523); experiment: Continuous spectrophotometric kinase activity assay; assay type: biochemical; details: Src kinase domain; 5 μM ATP, 100 μM Src optimal peptide
# T2 construct: chicken c-Src (residues 251-533 and residues 83-533); made in house
# [3] = tested on: Src Thr338Ile; experiment: Inhibition of Src gatekeeper mutant; assay type: biochemical, chicken
# Excerpt: (§1) Kinase domain constructs of human c-Abl (residues 229-512), chicken c-Src (residues 251-533 and residues 83-533), murine Lck (residues 227-509), and human Hck (residues 166-445) were expressed as previously described (Seeliger, Young et al. 2005; Seeliger, Nagar et al. 2007; the entire contents of each of which are incorporated by reference herein). Mutations were introduced into chicken c-Src (residues 251-533) (T338I, C277Q, L297M) by site-directed mutagenesis and verified by DNA sequencing.
# For the FRET-based endpoint assay, kinase assays were performed using Invitrogen's Z′-LYTE kinase assay using the Tyr 02 substrate peptide (based upon the optimal Abl substrate peptide […]) according to the manufacturer's instructions. Assays were performed at near KM ATP concentrations for full-length c-Src and full-length c-Src T338I-50 μM and 7 μM, respectively.
# [4] = target: T3, Src83-533 (chicken c-Src 83-533) (Gallus gallus, UniProt P00523); experiment: Kinase activity assay with longer Src construct including SH3 and SH2 domains; assay type: biochemical; details: Src wild-type construct containing SH3 and SH2 domains
# T3 construct: the regulatory SH3 and SH2 domains (chicken c-Src 83-533); made in house
# Excerpt: as §1
# In vitro kinase inhibition assays were performed using either a continuous spectrophotometric assay or a FRET-based endpoint assay. […]
# To address this discrepancy, the two major differences between the fluorescent peptide-based Z′-LYTE assay and the continuous spectrophotometric assay employed here were investigated: the kinase construct used (full-length kinase in the Z-LYTE assay vs. kinase domain in the current study) and the peptide identity and concentration (5 μM fluorescent Abl-optimal substrate peptide in the previous study vs. 100 μM Src-optimal substrate peptide in the current study). […] The IC50 values determined for MC1.2 and MC4.1 were close to the concentration of the kinase used in the assay and therefore these values only represent an upper estimate of the real potency of these compounds.
# [5] = target: Src kinase (Homo sapiens, UniProt P12931); experiment: Z'-LYTE kinase assay (Invitrogen), Src; assay type: biochemical; design: full-length kinase in the Z-LYTE assay vs. kinase domain in the current study; purchased Millipore; details: Z'-LYTE; ATP near KM
# Procedure: Nine macrocycles enriched in the Src selection (FIG. 5) and synthesized as described above were assayed in vitro for the ability to inhibit Src kinase activity. Kinase activity was assayed in the presence of varying concentrations of macrocycle using the FRET-based Z′-LYTE assay (Invitrogen).
# Src IC50 determinations and single-point inhibition measurements were performed using Invitrogen's Z′-LYTE Tyr 02 assay kit according to the manufacturer's protocols. All kinase assays were performed at ATP concentrations near KM,ATP values, except where noted otherwise. Active human Src kinase was obtained from Millipore. For kinome profiling and IC50 determinations against non-Src kinases, compounds were submitted to Invitrogen's SelectScreen Kinase Profiling Service.
# Chain of Src kinase (P12931 whole entry, the tested form may be a part): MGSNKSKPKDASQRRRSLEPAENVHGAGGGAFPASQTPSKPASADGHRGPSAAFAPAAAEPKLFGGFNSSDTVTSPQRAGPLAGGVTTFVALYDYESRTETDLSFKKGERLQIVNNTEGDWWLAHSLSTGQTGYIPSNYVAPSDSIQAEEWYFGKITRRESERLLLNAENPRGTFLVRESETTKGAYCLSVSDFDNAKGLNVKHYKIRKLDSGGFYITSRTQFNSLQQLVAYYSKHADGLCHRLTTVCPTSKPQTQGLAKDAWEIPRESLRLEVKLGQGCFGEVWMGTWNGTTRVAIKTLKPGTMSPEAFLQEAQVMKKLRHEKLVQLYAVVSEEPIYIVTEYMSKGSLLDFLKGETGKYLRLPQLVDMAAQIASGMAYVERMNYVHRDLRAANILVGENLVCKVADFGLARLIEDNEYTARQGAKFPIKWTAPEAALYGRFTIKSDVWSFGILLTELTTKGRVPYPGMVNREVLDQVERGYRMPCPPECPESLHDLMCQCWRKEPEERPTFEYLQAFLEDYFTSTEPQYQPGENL
compound,measurement,setting,value
NC(=O)[C@@H]1CCNC(=O)[C@H](CCCNC(=O)c2cnccn2)NC(=O)[C@H](CC2CCCCC2)NC(=O)[C@H](C/C=C/c2ccccc2)NC(=O)/C=C\C(=O)N1 [cis-A11-B8-C10-D7],Kd,[1]; 250 μM AMP-PNP,12.6 µM
same,Kd,[1]; no competitor,3.6 µM
same,IC50,[2],69 µM
same,lower potency against gatekeeper mutant than against Src wild-type,[3],about 3 fold
same,IC50,[3]; Src Thr338Ile containing SH3 and SH2 domains,1 µM
same,IC50,[4],0.39 µM
same,IC50,[5],25 µM
